This note sets out measurements from paper PMC7413254 (Nature Communications, 2020).

What all share (conditions): trans-stimulation, solute 2 mM
The subject of test [1] is non-expressing oocytes. Type of test: cell-based, Xenopus laevis. An outline of the steps:
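Oocytes (ten per treatment, ≥4 independent frogs/days) were preloaded by injecting VF-6 in 25 nL ND96 at pH 5.0, 5.5, 6.0 or 7.0, or Na^+-free choline buffer, then uptake run 1.5 h, 27.5 °C, ND96 pH 5.5 by default. Internal concentrations assumed ~400 nL oocyte volume.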

The target of test [2] is PfCRT^3D7 (Plasmodium falciparum, UniProt Q8IBZ9). Description: cell-based. Type of test: cell-based. In a few lines: (§1)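 Transport measured in Xenopus oocytes expressing the transporters, 1.5 h at 27.5 °C in ND96 pH 5.5 unless noted. For trans-stimulation, VF-6 injected in 25 nL ND96 at pH 5.0–7.0 or Na^+-free (choline) buffer; intracellular levels based on ~400 nL oocyte volume. Ten oocytes per treatment, ≥4 experiments.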
Sequence of PfCRT^3D7 (Q8IBZ9 59-398): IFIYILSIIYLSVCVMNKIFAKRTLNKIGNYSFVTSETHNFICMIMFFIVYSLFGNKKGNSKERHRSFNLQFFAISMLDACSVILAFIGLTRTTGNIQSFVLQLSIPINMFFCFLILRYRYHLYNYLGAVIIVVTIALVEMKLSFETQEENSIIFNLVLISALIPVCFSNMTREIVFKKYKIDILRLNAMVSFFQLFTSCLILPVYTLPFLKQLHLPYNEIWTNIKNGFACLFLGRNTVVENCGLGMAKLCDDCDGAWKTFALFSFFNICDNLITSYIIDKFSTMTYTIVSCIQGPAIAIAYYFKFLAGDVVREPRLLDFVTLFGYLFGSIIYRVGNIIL

The target of test [3] is PfCRT^Dd2 (Plasmodium falciparum, UniProt Q9N623, A220S/I356T/K76T/M74I/N326S/N75E/Q271E/R371I). Description: cell-based. The class given is cell-based. In a few lines: as §1
Sequence of PfCRT^Dd2 (Q9N623 whole entry A220S/I356T/K76T/M74I/N326S/N75E/Q271E/R371I): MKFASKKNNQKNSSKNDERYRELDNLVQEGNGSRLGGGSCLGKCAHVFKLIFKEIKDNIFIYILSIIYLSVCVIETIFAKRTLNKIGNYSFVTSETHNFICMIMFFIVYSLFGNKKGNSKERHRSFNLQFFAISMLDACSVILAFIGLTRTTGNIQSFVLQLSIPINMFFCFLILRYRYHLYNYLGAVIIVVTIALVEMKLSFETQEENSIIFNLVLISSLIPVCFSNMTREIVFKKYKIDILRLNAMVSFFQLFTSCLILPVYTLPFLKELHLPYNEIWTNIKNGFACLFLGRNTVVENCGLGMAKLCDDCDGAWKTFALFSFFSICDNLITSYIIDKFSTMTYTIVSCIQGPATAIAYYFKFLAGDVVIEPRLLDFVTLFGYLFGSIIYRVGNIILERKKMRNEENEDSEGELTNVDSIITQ
Test [4] has as its target PfCRT^Ecu1110 (Plasmodium falciparum, UniProt Q9N623, A220S/I356L/K76T/N326D). In words: cell-based. The class given is cell-based. In a few lines: as §1
Test [5] addresses T1, PfNT1 (Plasmodium falciparum, UniProt Q8IDM6).
T1 construct: expressed in transfected cells; host or cells: Xenopus laevis oocytes (stage V-VI), cRNA-injected
Description: cell-based. Type of test: cell-based. An outline of the steps: as §1

Read-outs that look alike come from different tables or passages of the source.

T1 sequence (Q8IDM6 whole entry): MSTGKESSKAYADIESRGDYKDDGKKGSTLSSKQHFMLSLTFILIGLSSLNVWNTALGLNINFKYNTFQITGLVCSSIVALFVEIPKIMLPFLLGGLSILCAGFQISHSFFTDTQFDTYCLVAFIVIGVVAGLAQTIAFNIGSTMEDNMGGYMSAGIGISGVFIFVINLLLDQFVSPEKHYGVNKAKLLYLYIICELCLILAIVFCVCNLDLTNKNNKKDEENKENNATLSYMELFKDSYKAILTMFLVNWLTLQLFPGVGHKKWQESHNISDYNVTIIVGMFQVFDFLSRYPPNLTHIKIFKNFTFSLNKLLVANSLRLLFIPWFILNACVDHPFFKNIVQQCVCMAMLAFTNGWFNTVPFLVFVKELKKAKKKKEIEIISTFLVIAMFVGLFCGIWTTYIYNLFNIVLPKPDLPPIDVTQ
Sequence of PfCRT^Ecu1110 (Q9N623 whole entry A220S/I356L/K76T/N326D): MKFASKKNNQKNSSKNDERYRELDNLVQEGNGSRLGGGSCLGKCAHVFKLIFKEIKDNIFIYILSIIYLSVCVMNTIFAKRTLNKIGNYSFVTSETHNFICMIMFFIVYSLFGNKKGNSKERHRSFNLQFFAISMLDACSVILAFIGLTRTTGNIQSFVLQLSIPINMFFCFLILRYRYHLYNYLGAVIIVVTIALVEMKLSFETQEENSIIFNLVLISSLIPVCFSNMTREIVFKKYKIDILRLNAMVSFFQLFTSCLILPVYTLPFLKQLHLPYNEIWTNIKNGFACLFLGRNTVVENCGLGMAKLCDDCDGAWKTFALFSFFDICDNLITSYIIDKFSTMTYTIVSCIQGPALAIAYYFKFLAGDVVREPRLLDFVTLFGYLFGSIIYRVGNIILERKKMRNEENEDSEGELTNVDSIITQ

Turning to PVNF [VF-6-derived peptide], the “[3H]CQ transport, non-expressing oocytes” value stood at 2.32 % PfCRTDd2 control in test [1] (Experiment 1), 2.21 % PfCRTDd2 control in test [1] (Experiment 2), 2.25 % PfCRTDd2 control in test [1] (Experiment 3) and 2.16 % PfCRTDd2 control in test [1] (Experiment 4). Besides, the “[3H]CQ transport, PfCRT3D7” value in test [2] (Experiment 1) came out at 16.17 % PfCRTDd2 control; in test [2] (Experiment 2), 15.91 % PfCRTDd2 control; in test [2] (Experiment 3), 16.12 % PfCRTDd2 control; in test [2] (Experiment 4), 16.15 % PfCRTDd2 control. The “[3H]CQ transport, PfCRTDd2” value in test [3] (Experiment 1) stood at 115.75 % PfCRTDd2 control; in test [3] (Experiment 2) it was 122.53 % PfCRTDd2 control; in test [3] (Experiment 3), 112.64 % PfCRTDd2 control; in test [3] (Experiment 4), 109.74 % PfCRTDd2 control. Also, the “[3H]CQ transport, PfCRTEcu1110” value in test [4] (Experiment 1) was found to be 47.86 % PfCRTDd2 control; in test [4] (Experiment 2), 40.15 % PfCRTDd2 control; in test [4] (Experiment 3) it was 37.75 % PfCRTDd2 control; in test [4] (Experiment 4) it was 41.78 % PfCRTDd2 control. For the same substance, the “[3H]CQ transport, PfNT1” value came to 3.55 % PfCRTDd2 control in test [5] (Experiment 1), 3.73 % PfCRTDd2 control in test [5] (Experiment 2), 3.85 % PfCRTDd2 control in test [5] (Experiment 3) and 3.52 % PfCRTDd2 control in test [5] (Experiment 4).

As to VDPVN [VF-6-derived peptide], the “[3H]CQ transport, non-expressing oocytes” value in test [1] (Experiment 1) is listed as 2.84 % PfCRTDd2 control; in test [1] (Experiment 2), 2.91 % PfCRTDd2 control; in test [1] (Experiment 3) it was 2.78 % PfCRTDd2 control; in test [1] (Experiment 4) it was 2.94 % PfCRTDd2 control. For the same substance, the “[3H]CQ transport, PfCRT3D7” value in test [2] (Experiment 1) is listed as 18.56 % PfCRTDd2 control; in test [2] (Experiment 2) it was 19.52 % PfCRTDd2 control; in test [2] (Experiment 3), 15.43 % PfCRTDd2 control; in test [2] (Experiment 4), 18.35 % PfCRTDd2 control. For the same substance, the “[3H]CQ transport, PfCRTDd2” value in test [3] (Experiment 1) is 120.53 % PfCRTDd2 control; in test [3] (Experiment 2), 112.56 % PfCRTDd2 control; in test [3] (Experiment 3), 120.67 % PfCRTDd2 control; in test [3] (Experiment 4) it was 119.43 % PfCRTDd2 control. In addition, the “[3H]CQ transport, PfCRTEcu1110” value in test [4] (Experiment 1) was 40.67 % PfCRTDd2 control; in test [4] (Experiment 2), 44.84 % PfCRTDd2 control; in test [4] (Experiment 3) it was 45.43 % PfCRTDd2 control; in test [4] (Experiment 4), 46.24 % PfCRTDd2 control. In addition, the “[3H]CQ transport, PfNT1” value in test [5] (Experiment 1) was 2.85 % PfCRTDd2 control; in test [5] (Experiment 2), 2.88 % PfCRTDd2 control; in test [5] (Experiment 3) it was 2.95 % PfCRTDd2 control; in test [5] (Experiment 4) it was 2.89 % PfCRTDd2 control.

In the case of DPVNF [VF-6-derived peptide], the “[3H]CQ transport, non-expressing oocytes” value was 2.53 % PfCRTDd2 control in test [1] (Experiment 1), 2.61 % PfCRTDd2 control in test [1] (Experiment 2), 2.41 % PfCRTDd2 control in test [1] (Experiment 3) and 2.43 % PfCRTDd2 control in test [1] (Experiment 4). Besides, the “[3H]CQ transport, PfCRT3D7” value in test [2] (Experiment 1) is 17.63 % PfCRTDd2 control; in test [2] (Experiment 2), 14.86 % PfCRTDd2 control; in test [2] (Experiment 3) it was 18.47 % PfCRTDd2 control; in test [2] (Experiment 4), 17.33 % PfCRTDd2 control. Besides, the “[3H]CQ transport, PfCRTDd2” value in test [3] (Experiment 1) came out at 116.36 % PfCRTDd2 control; in test [3] (Experiment 2), 119.52 % PfCRTDd2 control; in test [3] (Experiment 3), 110.63 % PfCRTDd2 control; in test [3] (Experiment 4) it was 125.53 % PfCRTDd2 control. The “[3H]CQ transport, PfCRTEcu1110” value is reported as 45.52 % PfCRTDd2 control in test [4] (Experiment 1), 43.68 % PfCRTDd2 control in test [4] (Experiment 2), 37.35 % PfCRTDd2 control in test [4] (Experiment 3) and 43.35 % PfCRTDd2 control in test [4] (Experiment 4). The “[3H]CQ transport, PfNT1” value in test [5] (Experiment 1) is listed as 3.85 % PfCRTDd2 control; in test [5] (Experiment 2), 3.98 % PfCRTDd2 control; in test [5] (Experiment 3), 3.94 % PfCRTDd2 control; in test [5] (Experiment 4) it was 3.99 % PfCRTDd2 control.

DPVN [VF-6-derived peptide]: the “[3H]CQ transport, non-expressing oocytes” value in test [1] (Experiment 1) was found to be 2.53 % PfCRTDd2 control; in test [1] (Experiment 2), 2.64 % PfCRTDd2 control; in test [1] (Experiment 3) it was 2.41 % PfCRTDd2 control; in test [1] (Experiment 4), 2.56 % PfCRTDd2 control. The “[3H]CQ transport, PfCRT3D7” value in test [2] (Experiment 1) was found to be 12.64 % PfCRTDd2 control; in test [2] (Experiment 2), 13.46 % PfCRTDd2 control; in test [2] (Experiment 3), 12.14 % PfCRTDd2 control; in test [2] (Experiment 4), 11.36 % PfCRTDd2 control. The “[3H]CQ transport, PfCRTDd2” value in test [3] (Experiment 1) was determined as 100.43 % PfCRTDd2 control; in test [3] (Experiment 2), 99.77 % PfCRTDd2 control; in test [3] (Experiment 3), 98.92 % PfCRTDd2 control; in test [3] (Experiment 4), 101.43 % PfCRTDd2 control. The “[3H]CQ transport, PfCRTEcu1110” value in test [4] (Experiment 1) is on record as 32.63 % PfCRTDd2 control; in test [4] (Experiment 2), 30.52 % PfCRTDd2 control; in test [4] (Experiment 3), 37.36 % PfCRTDd2 control; in test [4] (Experiment 4), 30.52 % PfCRTDd2 control. Moreover, the “[3H]CQ transport, PfNT1” value is recorded as 3.52 % PfCRTDd2 control in test [5] (Experiment 1), 3.38 % PfCRTDd2 control in test [5] (Experiment 2), 3.26 % PfCRTDd2 control in test [5] (Experiment 3) and 3.33 % PfCRTDd2 control in test [5] (Experiment 4).
